# Experiments:
# LNCaP xenografts [1] = experiment: PET/CT-imaging in LNCaP-tumor bearing mice; type: in vivo
# PSMA (FOLH1) = molecular target: T1, PSMA (FOLH1) (Homo sapiens, UniProt Q04609); experiment: In vitro inhibition of NAALADase activity in LNCaP membrane extracts; type: biochemical; conditions: crude membrane extracts from LNCaP cells; release of [3H]-Glutamate from [3H]NAAG, pH7.4, 30 min at 37° C.; read-out: IC50 with respect to NAALADase activity
# T1 construct: protein extracted from the membrane fraction of LNCaP cells; host or cells: LNCaP cells (crude membrane extract)
# Description: NAALADase activity was assayed essentially as described previously (Slusher B S, Tsai G, Yoo G, Coyle J T. Immunocytochemical localization of the N-acetyl-aspartyl-glutamate hydrolyzing enzyme N-acetylated alpha-linked acidic dipeptidase [NAALADase]. J Comp Neurol 1992; 315:217-229) in crude membrane extracts from LNCaP tissue culture cells (ref ATCC CRL-1740). Briefly, the release of [3H]-Glutamate from [3H] N-acetyl-aspartyl-glutamate (NAAG) in 50 mM Tris-Cl buffer pH7.4 after 30 min at 37° C. was measured using 1-5 μg/ml of protein extracted from the membrane fraction of LNCaP cells; substrate and product were resolved by cation-exchange liquid chromatography.
# [2] = Metabolic stability, mouse microsomes (TLC); type: in vitro ADME; conditions: TLC after different timepoints
# Description: (§1) Metabolic stability of Example F13 was assessed by incubating F13 in the presence of mouse, rat, and human microsomes and rat hepatocytes. After different timepoints TLC analysis was performed. No metabolism by microsomes or hepatocytes was found.
# LNCaP xenografts [3] = experiment: PET/CT-imaging in LNCaP-tumor bearing mice; type: in vivo; conditions: 50-70 min after injection of ~10 MBq
# Description: Example F13 was imaged on a microPET/CT (Inveon, Siemens) in LNCaP tumor-bearing mice 50-70 min after injection of ˜10 MBq radiotracer Example F13.
# Example F14 was imaged on a microPET/CT (Inveon, Siemens) in LNCaP tumor-bearing mice 50-70 min after injection of ˜10 MBq radiotracer Example F14.
# [4] = Stability in human plasma in vitro (TLC); type: in vitro ADME
# Description: Stability of Example F13 was investigated in human plasma in vitro. The Example was analyzed by TLC at different time points. […] After two hours, 82% of Example F13 was still intact.
# [5] = Metabolic stability, rat hepatocytes (TLC); type: in vitro ADME; conditions: TLC after different timepoints
# Description: as §1
# [6] = Metabolic stability, human microsomes (TLC); type: in vitro ADME; conditions: TLC after different timepoints
# Description: as §1
# [7] = Biodistribution in LNCaP bearing nude mice; type: in vivo
# Description: Male nude mice were implanted subcutaneously with 10 million LNCaP tumor cells, which were freshly expanded in a sterilized solution phosphate-buffered saline (PBS, pH 7.4). 4 weeks after inoculation the mice were injected into the tail vein with 150 kBq of radiolabeled Example F13, diluted in PBS (total injected volume 100 μl). At 30, 60, 120, and 180 min intervals, the mice (in groups of 3) were sacrificed and the organs of interest were collected, rinsed of excess blood, weighed and counted in a gamma-counter.
# [8] = Metabolic stability, rat microsomes (TLC); type: in vitro ADME; conditions: TLC after different timepoints
# Description: as §1
# [9] = 110-130 min after injection of ~10 MBq
# [10] = 0.5 h after injection of 150 kBq into tail vein
# [11] = 1.0 h after injection of 150 kBq into tail vein
# [12] = 2.0 h after injection of 150 kBq into tail vein
# [13] = 3.0 h after injection of 150 kBq into tail vein
# T1 sequence (Q04609 whole entry): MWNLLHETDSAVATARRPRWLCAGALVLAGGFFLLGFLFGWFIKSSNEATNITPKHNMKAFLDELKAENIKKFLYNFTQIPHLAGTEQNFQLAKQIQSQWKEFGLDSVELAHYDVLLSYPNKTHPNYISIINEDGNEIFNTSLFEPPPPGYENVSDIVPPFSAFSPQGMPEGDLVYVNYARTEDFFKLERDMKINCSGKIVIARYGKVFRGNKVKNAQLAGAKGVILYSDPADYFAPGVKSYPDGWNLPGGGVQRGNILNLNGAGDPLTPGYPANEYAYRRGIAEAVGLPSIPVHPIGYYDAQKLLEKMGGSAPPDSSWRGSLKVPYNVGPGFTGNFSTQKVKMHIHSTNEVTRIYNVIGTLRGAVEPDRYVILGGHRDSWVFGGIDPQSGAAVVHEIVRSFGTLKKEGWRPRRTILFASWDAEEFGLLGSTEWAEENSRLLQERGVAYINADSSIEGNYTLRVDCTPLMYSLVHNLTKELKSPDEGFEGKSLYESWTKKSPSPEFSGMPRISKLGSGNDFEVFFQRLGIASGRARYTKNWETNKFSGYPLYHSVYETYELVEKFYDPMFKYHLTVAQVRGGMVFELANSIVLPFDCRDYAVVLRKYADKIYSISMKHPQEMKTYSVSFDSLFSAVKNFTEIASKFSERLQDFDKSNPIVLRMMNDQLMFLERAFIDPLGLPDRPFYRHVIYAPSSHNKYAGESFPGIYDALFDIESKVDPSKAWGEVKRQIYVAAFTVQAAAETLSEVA
smiles,measurement,setting,value
"O=C(O)C(F)CC(CP(=O)(O)O)C(=O)O (racemic) [Example F3, rac-2-Fluoro-4-(phosphonomethyl)pentanedioic acid]",blocking of tumor-contrast of radiotracer Example F15a,"LNCaP xenografts [1]; 22 μg non-radioactive Example F3 with ~10 MBq Example F15a, 110-130 min",effectively blocked
same,IC50,PSMA (FOLH1),30 nM
"O=C(O)C([18F])CC(CP(=O)(O)O)C(=O)O (racemic) [Example F15a, rac-2-[^18F]-Fluoro-4-(phosphonomethyl)pentanedioic acid]",background activity in PET/CT image,LNCaP xenografts [1]; [9],very low background activity
same,kidney and bladder uptake in PET/CT image,LNCaP xenografts [1]; [9],strong kidney and bladder uptake
same,renal clearance,LNCaP xenografts [1]; [9],rapid renal clearance
same,tumor-contrast in PET/CT image,LNCaP xenografts [1]; [9],High tumor-contrast
"O=C(O)[C@H](C[C@@H](F)C(=O)O)CP(=O)(O)O [Example F8, (2R,4S)-2-Fluoro-4-(phosphonomethyl)pentanedioic acid]",IC50,PSMA (FOLH1),14 nM
"O=C(O)[C@H](C[C@H](F)C(=O)O)CP(=O)(O)O [Example F10, (2S,4S)-2-Fluoro-4-(phosphonomethyl)pentanedioic acid]",IC50,PSMA (FOLH1),7 nM
"O=C(O)[C@H](C[C@H]([18F])C(=O)O)CP(=O)(O)O [Example F13, (2S,4S)-2-[^18F]-Fluoro-4-(phosphonomethyl)pentanedioic acid]",metabolism by microsomes,[2],No metabolism
same,background activity in PET/CT image,LNCaP xenografts [3],very low background activity
same,kidney and bladder uptake in PET/CT image,LNCaP xenografts [3],strong kidney and bladder uptake
same,renal clearance,LNCaP xenografts [3],rapid renal clearance
same,tumor-contrast in PET/CT image,LNCaP xenografts [3],High tumor-contrast
same,release of free fluoride upon incubation in human plasma,[4]; TLC at different time points,did not show increased release of free fluoride
same,compound still intact in human plasma,"[4]; after two hours, TLC",82%
same,metabolism by hepatocytes,[5],No metabolism
same,metabolism by microsomes,[6],No metabolism
same,% Dosis/g adrenals,[7]; [10],3.31 % Dosis/g
same,% Dosis/g blood,[7]; [10],0.79 % Dosis/g
same,% Dosis/g bone,[7]; [10],2.61 % Dosis/g
same,% Dosis/g brain,[7]; [10],0.05 % Dosis/g
same,% Dosis/g fat,[7]; [10],0.78 % Dosis/g
same,% Dosis/g heart,[7]; [10],0.53 % Dosis/g
same,% Dosis/g intestine,[7]; [10],0.23 % Dosis/g
same,% Dosis/g kidney,[7]; [10],105.78 % Dosis/g
same,% Dosis/g liver,[7]; [10],0.40 % Dosis/g
same,% Dosis/g lung,[7]; [10],1.12 % Dosis/g
same,% Dosis/g muscle,[7]; [10],0.26 % Dosis/g
same,% Dosis/g pankreas,[7]; [10],0.45 % Dosis/g
same,% Dosis/g prostate,[7]; [10],0.69 % Dosis/g
same,% Dosis/g skin,[7]; [10],0.85 % Dosis/g
same,% Dosis/g spleen,[7]; [10],3.00 % Dosis/g
same,% Dosis/g stomach,[7]; [10],0.51 % Dosis/g
same,% Dosis/g tail,[7]; [10],4.69 % Dosis/g
same,% Dosis/g testes,[7]; [10],0.76 % Dosis/g
same,% Dosis/g thyroid,[7]; [10],0.68 % Dosis/g
same,% Dosis/g tumor,[7]; [10],5.31 % Dosis/g
same,% Dosis/g adrenals,[7]; [11],2.46 % Dosis/g
same,% Dosis/g blood,[7]; [11],0.33 % Dosis/g
same,% Dosis/g bone,[7]; [11],2.53 % Dosis/g
same,% Dosis/g brain,[7]; [11],0.06 % Dosis/g
same,% Dosis/g fat,[7]; [11],0.36 % Dosis/g
same,% Dosis/g heart,[7]; [11],0.27 % Dosis/g
same,% Dosis/g intestine,[7]; [11],0.23 % Dosis/g
same,% Dosis/g kidney,[7]; [11],105.40 % Dosis/g
same,% Dosis/g liver,[7]; [11],0.42 % Dosis/g
same,% Dosis/g lung,[7]; [11],0.49 % Dosis/g
same,% Dosis/g muscle,[7]; [11],0.21 % Dosis/g
same,% Dosis/g pankreas,[7]; [11],0.22 % Dosis/g
same,% Dosis/g prostate,[7]; [11],0.70 % Dosis/g
same,% Dosis/g skin,[7]; [11],0.76 % Dosis/g
same,% Dosis/g spleen,[7]; [11],2.48 % Dosis/g
same,% Dosis/g stomach,[7]; [11],0.26 % Dosis/g
same,% Dosis/g tail,[7]; [11],2.37 % Dosis/g
same,% Dosis/g testes,[7]; [11],0.50 % Dosis/g
same,% Dosis/g thyroid,[7]; [11],0.45 % Dosis/g
same,% Dosis/g tumor,[7]; [11],4.08 % Dosis/g
same,% Dosis/g adrenals,[7]; [12],0.51 % Dosis/g
same,% Dosis/g blood,[7]; [12],0.07 % Dosis/g
same,% Dosis/g bone,[7]; [12],1.52 % Dosis/g
same,% Dosis/g brain,[7]; [12],0.04 % Dosis/g
same,% Dosis/g fat,[7]; [12],0.17 % Dosis/g
same,% Dosis/g heart,[7]; [12],0.06 % Dosis/g
same,% Dosis/g intestine,[7]; [12],0.28 % Dosis/g
same,% Dosis/g kidney,[7]; [12],41.15 % Dosis/g
same,% Dosis/g liver,[7]; [12],0.24 % Dosis/g
same,% Dosis/g lung,[7]; [12],0.17 % Dosis/g
same,% Dosis/g muscle,[7]; [12],0.12 % Dosis/g
same,% Dosis/g pankreas,[7]; [12],0.07 % Dosis/g
same,% Dosis/g prostate,[7]; [12],0.66 % Dosis/g
same,% Dosis/g skin,[7]; [12],0.29 % Dosis/g
same,% Dosis/g spleen,[7]; [12],0.42 % Dosis/g
same,% Dosis/g stomach,[7]; [12],0.11 % Dosis/g
same,% Dosis/g tail,[7]; [12],1.73 % Dosis/g
same,% Dosis/g testes,[7]; [12],0.15 % Dosis/g
same,% Dosis/g thyroid,[7]; [12],0.18 % Dosis/g
same,% Dosis/g tumor,[7]; [12],3.13 % Dosis/g
same,% Dosis/g adrenals,[7]; [13],0.573 % Dosis/g
same,% Dosis/g blood,[7]; [13],0.08 % Dosis/g
same,% Dosis/g bone,[7]; [13],2.12 % Dosis/g
same,% Dosis/g brain,[7]; [13],0.03 % Dosis/g
same,% Dosis/g fat,[7]; [13],0.35 % Dosis/g
same,% Dosis/g heart,[7]; [13],0.08 % Dosis/g
same,% Dosis/g intestine,[7]; [13],1.03 % Dosis/g
same,% Dosis/g kidney,[7]; [13],46.96 % Dosis/g
same,% Dosis/g liver,[7]; [13],0.35 % Dosis/g
same,% Dosis/g lung,[7]; [13],0.16 % Dosis/g
same,% Dosis/g muscle,[7]; [13],0.06 % Dosis/g
same,% Dosis/g pankreas,[7]; [13],0.09 % Dosis/g
same,% Dosis/g prostate,[7]; [13],0.53 % Dosis/g
same,% Dosis/g skin,[7]; [13],0.24 % Dosis/g
same,% Dosis/g spleen,[7]; [13],0.41 % Dosis/g
same,% Dosis/g stomach,[7]; [13],0.20 % Dosis/g
same,% Dosis/g tail,[7]; [13],2.52 % Dosis/g
same,% Dosis/g testes,[7]; [13],0.20 % Dosis/g
same,% Dosis/g thyroid,[7]; [13],0.30 % Dosis/g
same,% Dosis/g tumor,[7]; [13],4.54 % Dosis/g
same,metabolism by microsomes,[8],No metabolism
"O=C(O)[C@H](C[C@@H]([18F])C(=O)O)CP(=O)(O)O [Example F14, (2R,4S)-2-[^18F]-Fluoro-4-(phosphonomethyl)pentanedioic acid]",background activity in PET/CT image,LNCaP xenografts [3],very low background activity
same,kidney and bladder uptake in PET/CT image,LNCaP xenografts [3],strong kidney and bladder uptake
same,renal clearance,LNCaP xenografts [3],rapid renal clearance
same,tumor-contrast in PET/CT image,LNCaP xenografts [3],High tumor-contrast
